Reference: US11248243B2, “Process for the biological production of methacrylic acid and derivatives thereof” (MITSUBISHI CHEMICAL UK LIMITED, priority 2015, dated 2022)

Experiments:
acyl-CoA synthetase AcsA = conditions: published value, cited from earlier work
[1] = target: T1, short chain acyl-CoA oxidase (ACX4) (Arabidopsis thaliana, UniProt Q96329); experiment: Activity test of ACX4 cell free extract, HPLC analysis; assay type: biochemical; conditions: ACX4 cell free extract 0.8 mg/ml, isobutyryl-CoA 500 μM, FAD 10 μM, HEPES pH 7.5, 30° C., 30 min
T1 construct: made in house; host or cells: E. coli BL21 (DE3) pLysS pET20b(+)::ACX4, cell free extract
T1 sequence (Q96329 1-436): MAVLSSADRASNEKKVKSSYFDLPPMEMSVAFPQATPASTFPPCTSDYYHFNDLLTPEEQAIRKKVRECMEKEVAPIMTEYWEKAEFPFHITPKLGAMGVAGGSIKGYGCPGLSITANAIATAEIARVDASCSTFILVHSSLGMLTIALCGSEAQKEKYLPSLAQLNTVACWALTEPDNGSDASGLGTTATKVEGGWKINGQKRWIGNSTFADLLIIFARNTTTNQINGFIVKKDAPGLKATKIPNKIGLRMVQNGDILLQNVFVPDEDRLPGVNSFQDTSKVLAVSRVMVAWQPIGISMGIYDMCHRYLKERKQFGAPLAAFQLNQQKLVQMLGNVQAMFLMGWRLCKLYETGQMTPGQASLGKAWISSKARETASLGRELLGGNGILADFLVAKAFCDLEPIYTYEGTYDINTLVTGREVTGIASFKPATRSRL
Protocol: To prepare a cell free extract of the ACX4 enzyme, one of the cell pellets that was prepared previously was re-suspended in HEPES (50 mM, pH 7.5) buffer (6 ml) that was supplemented with flavin adenine dinucleotide (FAD) at a final concentration of 10 μM. The re-suspended cells were then lysed in a Constant Systems One Shot cell disrupter. The lysate was centrifuged at 18,000 g for 15 min at 4° C. and the supernatant of this was further centrifuged at […] for 60 min at 4° C. The supernatant was concentrated in a VivaSpin Viva6 10,000 Molecular Weight Cut-Off centrifugal concentrator, centrifuging at 10,000 g at 18° C. until a six-fold volume reduction of the retentate. […] The total protein concentration in the retentate was determined using the BioRad DC protein assay kit, using bovine serum albumin as the protein standard. […]
The activity test of ACX4 was performed in 1.5 ml micro-centrifuge tubes. […] The reaction was incubated at 30° C. in the 1.5 ml micro-centrifuge tube, with shaking at 250 rpm for 30 min and the final reaction product was analysed by analytical HPLC (FIG. 5). […]
In order to confirm that the methacrylyl-CoA peak was genuine, and that it was not an isobutyryl-CoA peak with a shifted elution time, the sample was spiked with isobutyryl-CoA and analysed by HPLC again. […]

[2] = target: T2, 4-hydroxybenzoyl-CoA thioesterase (4HBT) (Arthrobacter sp, UniProt Q04416); experiment: Crude enzymatic assays of 4HBT cell free extract (DTNB, 412 nm); assay type: biochemical, Arthrobacter sp. strain SU; conditions: cell free protein extract 1 mg/ml
T2 construct: made in house; host or cells: E. coli BL21 (DE3) pLysS pET20b(+)::4HBT, cell free extract
Protocol: To prepare a cell free extract of the 4HBT enzyme, one of the cell pellets of E. coli BL21 (DE3) pLysS pET20b(+)::4HBT that was prepared previously was re-suspended in HEPES (50 mM, pH 7.5) assay buffer and lysed in a Constant Systems One Shot cell disrupter. The cell lysate was centrifuged at 18,000 g for 15 min at 4° C. and the supernatant of this was centrifuged at 57,750 g for a further 60 min at 4° C. This supernatant was washed using a VivaSpin Viva6 10,000 Molecular Weight Cut-Off centrifugal concentrator, centrifuging at 10,000 g at 18° C. until a six-fold volume reduction, followed by a six-fold re-dilution in the HEPES assay buffer and a further 6-fold volume reduction in the centrifugal concentrator. The total protein concentration of the cell free extracts from E. coli BL21 (DE3) pLysS pET20b(+)::4HBT overexpression cultures was performed using the BioRad DC assay kit, using bovine serum albumin as the protein standard. The same procedure was followed in order to prepare cell free extracts from a cell pellet of the E. coli BL21 (DE3) pLysS pET20b(+), the negative control strain.
Crude enzymatic assays of 4HBT were performed in cuvettes (1 ml) containing cell free protein extract (1 mg·ml^−1), methacrylyl-CoA (approximately 100 μM), 5′5-dithiobis-(2-nitrobenzoic) acid (DTNB) (500 μM). Reactions were started by the addition of substrate and were monitored at 412 nm. […]

T2 sequence (Q04416 whole entry): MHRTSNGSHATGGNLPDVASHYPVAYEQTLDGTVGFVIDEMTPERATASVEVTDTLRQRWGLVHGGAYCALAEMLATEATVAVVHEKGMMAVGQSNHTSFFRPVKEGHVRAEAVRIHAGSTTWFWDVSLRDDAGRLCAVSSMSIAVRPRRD

## CC(C)C(=O)O [isobutyric acid]
acyl-CoA synthetase AcsA
  turnover number (kcat): 10.6 s⁻¹
acyl-CoA synthetase AcsA; read-out: Michaelis constant (Km)
  Km: 140 µM

## CC(C)C(=O)SCCNC(=O)CCNC(=O)[C@H](O)C(C)(C)COP(=O)(O)OP(=O)(O)OC[C@H]1O[C@@H](n2cnc3c(N)ncnc32)[C@H](O)[C@@H]1OP(=O)(O)O [isobutyryl-CoA]
[1]
  oxidation of substrate by ACX4: oxidises

## C=C(C)C(=O)SCCNC(=O)CCNC(=O)[C@H](O)C(C)(C)COP(=O)(O)OP(=O)(O)OC[C@H]1O[C@@H](n2cnc3c(N)ncnc32)[C@H](O)[C@@H]1OP(=O)(O)O [methacrylyl-CoA]
[2]; methacrylyl-CoA versus isobutyryl-CoA
  substrate selectivity of 4HBT: selectivity for methacrylyl-CoA over isobutyryl-CoA
[2]; substrate approximately 100 μM, DTNB 500 μM
  hydrolysis of substrate by 4HBT: catalysed the hydrolysis
